Biological target: T1, recombinant guanylate cyclase reporter cell line (Rattus norvegicus, UniProt P19686+P20595)
T1 construct: expressed in transfected cells; host or cells: recombinant reporter cell line
T1 sequence (P19686 1-690): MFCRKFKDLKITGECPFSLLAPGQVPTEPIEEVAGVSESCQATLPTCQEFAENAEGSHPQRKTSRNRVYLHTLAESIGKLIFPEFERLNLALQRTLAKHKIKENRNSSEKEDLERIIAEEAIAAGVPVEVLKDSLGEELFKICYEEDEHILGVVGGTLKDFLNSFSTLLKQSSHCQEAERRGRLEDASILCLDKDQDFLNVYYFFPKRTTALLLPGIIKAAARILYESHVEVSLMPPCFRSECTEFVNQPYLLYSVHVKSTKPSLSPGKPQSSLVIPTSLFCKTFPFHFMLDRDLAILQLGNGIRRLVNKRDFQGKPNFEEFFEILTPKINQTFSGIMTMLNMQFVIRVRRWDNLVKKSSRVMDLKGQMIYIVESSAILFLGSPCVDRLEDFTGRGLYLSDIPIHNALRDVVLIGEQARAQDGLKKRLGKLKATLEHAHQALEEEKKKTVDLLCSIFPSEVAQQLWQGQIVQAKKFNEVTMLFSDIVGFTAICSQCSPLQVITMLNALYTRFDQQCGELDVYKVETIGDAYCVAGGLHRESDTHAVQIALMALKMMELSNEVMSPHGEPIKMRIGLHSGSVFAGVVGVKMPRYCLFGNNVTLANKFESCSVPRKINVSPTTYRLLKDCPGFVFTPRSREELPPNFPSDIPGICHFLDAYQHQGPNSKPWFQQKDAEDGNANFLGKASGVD
T1 sequence (P20595 1-619): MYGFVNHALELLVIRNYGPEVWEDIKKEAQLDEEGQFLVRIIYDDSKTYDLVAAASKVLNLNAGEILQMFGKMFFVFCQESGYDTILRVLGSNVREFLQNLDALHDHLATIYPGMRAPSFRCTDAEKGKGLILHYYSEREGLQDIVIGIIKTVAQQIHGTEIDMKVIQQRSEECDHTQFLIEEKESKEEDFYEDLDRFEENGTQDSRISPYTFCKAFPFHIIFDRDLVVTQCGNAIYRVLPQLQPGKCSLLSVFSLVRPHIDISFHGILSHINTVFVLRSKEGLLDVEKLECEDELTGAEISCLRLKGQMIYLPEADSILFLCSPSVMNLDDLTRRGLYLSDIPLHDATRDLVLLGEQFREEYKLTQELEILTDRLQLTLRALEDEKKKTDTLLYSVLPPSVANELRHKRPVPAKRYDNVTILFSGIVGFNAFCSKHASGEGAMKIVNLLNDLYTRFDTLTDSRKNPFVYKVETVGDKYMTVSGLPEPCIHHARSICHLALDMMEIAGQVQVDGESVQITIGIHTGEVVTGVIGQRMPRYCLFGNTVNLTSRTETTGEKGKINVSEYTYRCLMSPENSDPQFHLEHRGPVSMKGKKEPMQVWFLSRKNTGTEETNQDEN
Assay: Action on recombinant guanylate cyclase reporter cell line
Type: cell-based
Details: in some cases mean values from individual determinations
How it was run: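 Whole-cell reporter assay with recombinant guanylate cyclase; endpoint = minimal effective concentration.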

Row | SMILES | MEC (minimal effective concentration)
1 | Cc1nc2c(OCc3c(F)cccc3F)cccn2c1C(=O)NCC(N)C(F)(F)C(F)F (racemic) [Example 230, rac-N-(2-Amino-3,3,4,4-tetrafluorobutyl)-8-[(2,6-difluorobenzyl)oxy]-2-methylimidazo[1,2-a]-pyridine-3-carboxamide] | 1.00 µM
2 | Cc1nc2c(OCc3c(F)cccc3F)cccn2c1C(=O)NCC(C(C)C)N(C)C (racemic) [Example 142, rac-8-[(2,6-difluorobenzyl)oxy]-N-[2-(dimethyl-amino)-3-methylbutyl]-2-methylimidazo[1,2-a]-pyridine-3-carboxamide] | 1.00 µM
3 | Cc1nc2c(OCc3c(F)cccc3F)cccn2c1C(=O)NCCCN(C)C [Example 87, 8-[(2,6-difluorobenzyl)oxy]-N-[3-(dimethyl-amino)propyl]-2-methylimidazo[1,2-a]-pyridine-3-carboxamide] | 1.00 µM
4 | Cc1nc2c(OCc3c(F)cccc3F)cccn2c1C(=O)NC(CN)COC(C)C (single isomer, unassigned) [Example 93, ent-N-(1-Amino-3-isopropoxypropan-2-yl)-8-[(2,6-difluorobenzyl)oxy]-2-methylimidazo[1,2-a]-pyridine-3-carboxamide] | 0.30 µM
5 | Cc1nc2c(OCc3c(F)cccc3F)cccn2c1C(=O)NC1CC2CCCC(C1)N2C1CC1 (stereo not drawn) [Example 1, N-(9-Cyclopropyl-9-azabicyclo[3.3.1]non-3-yl)-8-[(2,6-difluorobenzyl)oxy]-2-methylimidazo[1,2-a]pyridine-3-carboxamide] | 0.10 µM
6 | Cc1nc2c(OCc3c(F)cccc3F)cccn2c1C(=O)NCC(C)(N)CO (racemic) [Example 273, rac-N-(2-Amino-3-hydroxy-2-methylpropyl)-8-[(2,6-difluorobenzyl)oxy]-2-methylimidazo[1,2-a]-pyridine-3-carboxamide] | 1.00 µM
7 | Cc1cc(OCc2c(F)cccc2F)c2nc(C)c(C(=O)NCC(C)(N)CCO)n2c1 (single isomer, unassigned; enantiomer a) [Example 271, ent-N-(2-Amino-4-hydroxy-2-methylbutyl)-8-[(2,6-difluorobenzyl)oxy]-2,6-dimethylimidazo[1,2-a]pyridine-3-carboxamide (Enantiomer A)] | 0.30 µM
8 | Cc1nc2c(OCc3c(F)cccc3F)cc(Cl)cn2c1C(=O)NCCN1CCN(C(C)C)CC1 [Example 152, 6-chloro-8-[(2,6-difluorobenzyl)oxy]-N-[2-(4-isopropylpiperazin-1-yl)ethyl]-2-methyl-imidazo[1,2-a]pyridine-3-carboxamide] | 1.00 µM
9 | Cc1cc(OCc2c(F)cccc2F)c2nc(C)c(C(=O)NC(CN)c3csc4ccccc34)n2c1 (racemic) [Example 389, rac-N-[2-amino-1-(1-benzothiophen-3-yl)ethyl]-8-[(2,6-difluorobenzyl)oxy]-2,6-dimethylimidazo[1,2-a]pyridine-3-carboxamide] | 1.00 µM
10 | CCCC(C)(N)CNC(=O)c1c(C)nc2c(OCc3c(F)cccc3F)cc(C)cn12 (single isomer, unassigned) [Example 233, ent-N-(2-Amino-2-methylpentyl)-8-[(2,6-difluorobenzyl)oxy]-2,6-dimethylimidazo[1,2-a]pyridine-3-carboxamide] | 0.10 µM
11 | Cc1nc2c(OCc3c(F)cccc3F)cccn2c1C(=O)NC12CNCCC1C2 (racemic) [Example 125, rac-N-(3-Azabicyclo[4.1.0]hept-1-yl)-8-[(2,6-difluorobenzyl)oxy]-2-methylimidazo[1,2-a]-pyridine-3-carboxamide] | 1.00 µM
12 | Cc1cc(OCc2c(F)cccc2F)c2nc(C)c(C(=O)NC3CC(C)Nc4ccc(C(F)(F)F)nc43)n2c1 (single isomer, unassigned; ent-8) [Example 326, ent-8-[(2,6-Difluorobenzyl)oxy]-2,6-dimethyl-N-[2-methyl-6-(trifluoromethyl)-1,2,3,4-tetrahydro-1,5-naphthyridin-4-yl]imidazo[1,2-a]pyridine-3-carboxamide] | 0.30 µM
13 | Cc1nc2c(OCc3c(F)cccc3F)cccn2c1C(=O)NCCNCC(F)F [Example 169] | 1.65 µM
14 | Cc1cc(OCc2c(F)cccc2F)c2nc(C)c(C(=O)NCCN3CCC(F)(F)CC3)n2c1 [Example 163, 8-[(2,6-difluorobenzyl)oxy]-N-[2-(4,4-difluoro-piperidin-1-yl)ethyl]-2,6-dimethylimidazo[1,2-a]pyridine-3-carboxamide] | 0.30 µM
15 | Cc1cc(OCc2c(F)cccc2F)c2nc(C)c(C(=O)NC(CN)c3ccc4ccccc4c3)n2c1 (racemic) [Example 379, rac-N-[2-amino-1-(2-naphthyl)ethyl]-8-[(2,6-difluorobenzyl)oxy]-2,6-dimethylimidazo[1,2-a]pyridine-3-carboxamide] | 1.00 µM
16 | COCC(C)(N)CNC(=O)c1c(C)nc2c(OCc3c(F)cccc3F)cc(C)cn12 (racemic) [Example 166, rac-N-(2-amino-3-methoxy-2-methylpropyl)-8-[(2,6-difluorobenzyl)oxy]-2,6-dimethylimidazo[1,2-a]pyridine-3-carboxamide] | 0.30 µM
17 | Cc1cc(OCc2c(F)cccc2F)c2nc(C)c(C(=O)NCCNC(C)(C)C)n2c1 [Example 255, N-[2-(tert-Butylamino)ethyl]-8-[(2,6-difluorobenzyl)oxy]-2,6-dimethylimidazo[1,2-a]pyridine-3-carboxamide] | 0.30 µM
18 | Cc1cc(OCc2c(F)cccc2F)c2nc(C)c(C(=O)NCC(N)c3csc4ccccc34)n2c1 (racemic) [Example 373, rac-N-[2-amino-2-(1-benzothiophen-3-yl)ethyl]-8-[(2,6-difluorobenzyl)oxy]-2,6-dimethylimidazo[1,2-a]pyridine-3-carboxamide] | 3.00 µM
19 | Cc1cc(OCc2c(F)cccc2F)c2nc(C)c(C(=O)NC(CN)c3cccc(OC(F)(F)F)c3)n2c1 (racemic) [Example 380, rac-N-{2-amino-1-[3-(trifluoromethoxy)phenyl]ethyl}-8-[(2,6-difluorobenzyl)oxy]-2,6-dimethylimidazo[1,2-a]pyridine-3-carboxamide] | 1.00 µM
20 | Cc1cc(OCc2c(F)cccc2F)c2nc(C)c(C(=O)NC3(C)CCC3(C)N)n2c1 (racemic) [Example 335, rac-N-[2-amino-1,2-dimethylcyclobutyl]-8-[(2,6-difluorobenzyl)oxy]-2,6-dimethylimidazo[1,2-a]pyridine-3-carboxamide] | 0.30 µM
21 | Cc1cc(OCc2c(F)cccc2F)c2nc(C)c(C(=O)NCCN(CC(F)F)C3CC3)n2c1 [Example 164, N-{2-[cyclopropyl(2,2-difluoroethyl)amino]ethyl}-8-[(2,6-difluorobenzyl)oxy]-2,6-dimethylimidazo[1,2-a]-pyridine-3-carboxamide] | 0.10 µM
22 | Cc1nc2c(OCc3c(F)cccc3F)cc(Cl)cn2c1C(=O)NCC(N)C(C)C (single isomer, unassigned) [Example 212, ent-N-(2-Amino-3-methylbutyl)-6-chloro-8-[(2,6-difluorobenzyl)oxy]-2-methylimidazo[1,2-a]-pyridine-3-carboxamide] | 1.00 µM
23 | CCCC[C@H](CNCCOC)NC(=O)c1c(C)nc2c(OCc3c(F)cccc3F)cccn12 [Example 70, ent-8-[(2,6-difluorobenzyl)oxy]-N-{(2R)-1-[(2-methoxyethyl)amino]hexan-2-yl}-2-methylimidazo[1,2-a]pyridine-3-carboxamide] | 1.00 µM
24 | Cc1cc(OCc2c(F)cccc2F)c2nc(C)c(C(=O)NC(C)CN)n2c1 (stereo not drawn) [Example 48, ent-N-(1-Aminopropan-2-yl)-8-[(2,6-difluorobenzyl)oxy]-2,6-dimethylimidazo[1,2-a]pyridine-3-carboxamide] | 1.00 µM

Reference: US20150274719A1, “AMINO-SUBSTITUTED IMIDAZO[1,2-A]PYRIDINECARBOXAMIDES AND THEIR USE” (BAYER PHARMA AKTIENGESELLSCHAFT, priority 2012, published 2015)
